Experiments:
[1] = tested on: Plasmodium vivax liver stage (primary human hepatocyte culture)
In short: (§1)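 Primary human hepatocytes were infected with P. vivax sporozoites from patient-isolate-fed mosquitoes. Compounds were added as 40 nL pin transfers from 1000× DMSO plates, at 8 points (10 uM[…]) or 12 points in duplicate (50 uM–280 pM). Fixed, immunostained wells were imaged by high-content imaging for schizont growth area, hypnozoite count and hepatic nuclei, normalised to DMSO and positive-control wells. Potency, maximum inhibition and nuclei-loss cytotoxicity came from CDD Vault curves of the highest-quality run, with toxic bell-shaped points removed.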

[2] = tested on: Plasmodium falciparum 3D7 asexual blood stage; experiment: EC50 asexual blood stage growth; conditions: serum: 0.5% AlbuMAX
Procedure: (§2)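 The Reference Compound Library was tested by 10-point 3-fold dose response against P. cynomolgi Berok K4 asexual blood stages (SYBR proliferation assay, mefloquine background control). Culture medium contained 0.5% AlbuMAX or 20% M. fascicularis serum. P. falciparum 3D7 was tested in a 72-h SYBR Green assay with 0.5% AlbuMAX. Values are geometric mean EC50 over independent experiments; 10 uM is the top dose.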

[3] = tested on: Plasmodium cynomolgi Berok K4 asexual blood stage; experiment: EC50 asexual blood stage growth
Procedure: as §2

[4] = tested on: Plasmodium vivax liver stage (primary human hepatocyte culture); experiment: maximum inhibition of schizont net growth area; higher = more active
In short: as §1

[5] = tested on: primary human hepatocytes; experiment: CC20 hepatic nuclei (20% reduction); higher = less toxic
In short: as §1

[6] = P. vivax isolate: Pv914, hepatocyte lot: BGW, assay mode: Prophylactic, 6-day
[7] = P. vivax isolate: Pv914, hepatocyte lot: BGW, assay mode: Radical Cure, 8-day (treatment from day 5 post-infection)
[8] = serum: 20% M. fascicularis serum
[9] = P. vivax isolate: Pv668, hepatocyte lot: BGW, assay mode: Radical Cure, 8-day (treatment from day 5 post-infection)
[10] = P. vivax isolate: Pv360, hepatocyte lot: UBV, assay mode: Radical Cure, 8-day (treatment from day 5 post-infection)
[11] = P. vivax isolate: Pv992, hepatocyte lot: BGW, assay mode: Prophylactic, 6-day
[12] = P. vivax isolate: Pv360, hepatocyte lot: UBV, assay mode: Prophylactic, 6-day
[13] = P. vivax isolate: IVS16-38, hepatocyte lot: PDC, assay mode: Prophylactic, 6-day
[14] = P. vivax isolate: Pv923, hepatocyte lot: BGW, assay mode: Radical Cure, 8-day (treatment from day 5 post-infection)

Compound	EC50 hypnozoite quantity [1, 6] [nM]	EC50 schizont net growth area [1, 6] [nM]	EC50 asexual blood stage growth [2] [nM]	EC50 asexual blood stage growth ([3]; serum: 0.5% AlbuMAX) [nM]	EC50 asexual blood stage growth [3, 8] [nM]	maximum inhibition [4, 6] [%]	CC20 hepatic nuclei [5, 6] [nM]	also measured
CS(=O)(=O)c1ccc(-c2cnc(N)c(-c3ccc(C(F)(F)F)nc3)n2)cc1	7.29	4.76	178	4880	629	101	> 10000	EC50 hypnozoite quantity [1, 7]: > 10000 nM; EC50 schizont net growth area [1, 7]: 23.9 nM; maximum inhibition [4, 7]: 96.4%; CC20 hepatic nuclei [5, 7]: > 10000 nM
O=C(NCCN1CCCC1)c1cc(-c2ccc(CN3CCOCC3)cc2)nc2ccc(F)cc12	10.4	2.57	1	1.5	0.7	101	> 10000	EC50 hypnozoite quantity [1, 7]: > 10000 nM; EC50 schizont net growth area [1, 7]: 2.35 nM; maximum inhibition [4, 7]: 92.3%; CC20 hepatic nuclei [5, 7]: > 10000 nM
OC(c1cc(C(F)(F)F)nc2c(C(F)(F)F)cccc12)C1CCCCN1 (racemic) [(±)-Mefloquine]	> 10000	> 1110	90.1	219	66.4	86	> 3330	
O[C@H](c1cc(C(F)(F)F)nc2c(C(F)(F)F)cccc12)[C@@H]1CCCCN1 [(+)-Mefloquine]	14800	5730	17.9	31.2	60	98.7	13200	EC50 hypnozoite quantity [1, 9]: > 50000 nM; maximum inhibition [4, 9]: 93.9%; CC20 hepatic nuclei [5, 9]: 23300 nM
CCN(CC)CCCNc1ccnc2cc(Cl)ccc12 [AQ-13]	> 10000		16	78.7	55.9	56.1	> 10000	
Cc1nc(Nc2ncc(N3CCN(C)C(C)C3)c(Nc3cc(C)n(C)n3)n2)cc(C2CC2)c1F (stereo unspecified) [AZ412]	> 3330	686	23.2	76.8	56.7	99.7	> 10000	EC50 hypnozoite quantity [1, 10]: > 10000 nM; EC50 schizont net growth area [1, 10]: 381 nM; maximum inhibition [4, 10]: 104%; CC20 hepatic nuclei [5, 10]: > 10000 nM
CCN(CC)Cc1cc(Nc2ccnc3cc(Cl)ccc23)ccc1O [Amodiaquine]			6	19.8	8.1			EC50 hypnozoite quantity [1, 11]: > 10000 nM; EC50 schizont net growth area [1, 11]: 14.1 nM; maximum inhibition [4, 11]: 87.2%; CC20 hepatic nuclei [5, 11]: > 10000 nM
COC1OC2OC3(C)CCC4C(C)CCC(C1C)C24OO3 (stereo unspecified) [Artemether]			57.5	6.8	6.5			EC50 hypnozoite quantity [1, 12]: > 10000 nM; maximum inhibition [4, 12]: 60.4%; CC20 hepatic nuclei [5, 12]: > 10000 nM
CCC1OC(=O)C(C)C(OC2CC(C)(OC)C(O)C(C)O2)C(C)C(OC2OC(C)CC(N(C)C)C2O)C(C)(O)CC(C)CN(C)C(C)C(O)C1(C)O (stereo unspecified) [Azithromycin]	> 10000	> 370	> 10000	> 10000	> 10000	63.3	> 10000	
CC(C)N=C(N)N=C(N)Nc1ccc(Cl)c(Cl)c1 [Chlorproguanil]	> 10000	> 1110	5340	8450	> 10000	98.1	> 10000	
CCCCCCC[C@@H]1CN[C@H](C(=O)NC(C(C)Cl)C2O[C@H](SC)[C@H](O)[C@@H](O)[C@H]2O)C1 (stereo partly drawn) [Cis-Mirincamycin]	> 10000		> 10000	7990	> 10000	69.3	> 10000	
Cc1cc(Nc2ccc(S(F)(F)(F)(F)F)cc2)n2nc(C(C)(F)F)nc2n1 [DSM265]			11	6.4	62.5			EC50 hypnozoite quantity [1, 13]: > 3070 nM; EC50 schizont net growth area [1, 13]: 126 nM; EC50 hypnozoite quantity [1, 14]: > 10000 nM; EC50 schizont net growth area [1, 14]: > 1110 nM; maximum inhibition [4, 13]: 100%; maximum inhibition [4, 14]: 69.4%; CC20 hepatic nuclei [5, 13]: > 3070 nM; CC20 hepatic nuclei [5, 14]: > 10000 nM
COc1cc2[nH]c(C)c(-c3ccc(Oc4ccc(OC(F)(F)F)cc4)cc3)c(=O)c2cc1Cl [ELQ-300]	> 1110	57.6	47.1	42	3.3	97.9	> 10000	
CCNCc1cc(Nc2ccnc3cc(Cl)ccc23)ccc1O [N-Desethylamodiaquine]	> 10000	> 3330	56	22.2	11.5	74.5	> 10000	
COc1cc(NC(C)CCCN)c2nccc(C)c2c1Oc1ccc(Cl)c(Cl)c1 (stereo unspecified) [NPC-1161B]	> 10000	> 370	2860	2760	8200	91.9	> 10000	
